# Data published in patent US7833543B2, “High viscosity liquid controlled delivery system and medical or surgical device” (Durect Corporation, priority 1995, dated 2010).
# Key:
# Assay type in all cases: physicochemical
# [1] = Dissolution of AZT and ddC SAIB formulations in soft gelatin capsules (USP XXIII Apparatus 2, Method B)
# Description: Zidovudine (AZT) and dideoxycytodine (ddC) suspensions were prepared by mixing drug with SAIB/solvent solutions with and without a cellulosic coexcipient. Approximately 1 g of each formulation was filled into soft gelatin capsules, which were heat sealed. Dissolution profiles were determined using Apparatus 2, Method B (USP XXIII) at a paddle speed of 50 rpm. Individual gelcaps were placed in separate dissolution vessels, and samples of the buffer in each vessel were obtained at 0.25, 0.5, 1, 2, 3, 6, and 24 hours. The samples were analyzed at 266 and 272 nm on a Perkin Elmer Lambda 20 UV-vis spectrophotometer for AZT and ddC drug content, respectively.
# [2] = In vitro release of paclitaxel and 5-FU from SAIB formulations into buffer (UV-vis); details: for cumulative release: after 7 days, 37° C.
# Description: Solutions of SAIB in the appropriate solvent were prepared with and without the incorporation of an additive. The active was weighed into a test tube and the SAIB/mixture was added and mixed thoroughly to yield a solution or suspension at the desired drug loading. Single drops of the mixture were precipitated into buffer by injection with standard syringes and needles. Samples were maintained at 37° C. in a shaker, sampled periodically, and analyzed by UV-vis spectrophotometry for active release. Paclitaxel and 5-FU samples were analyzed at 232 nm and 266 nm, respectively.
# [3] = Aerosol formulation with propellant R-134a: solution formation and sprayability
# Description: 5.33 g of a 10 wt % solution of bupivacaine in a composition containing 70:30 SAIB/NMP, prepared as described in U.S. Pat. No. 5,747,058, was added to an aerosol container. 14.32 g of propellant R-134a (1,1,1,2-tetrafluoroethane) was added.
# 5.44 g of a 10 wt % solution of bupivacaine in a composition containing 70:30 SAIB/NMP, prepared as described in U.S. Pat. No. 5,747,058, was added to an aerosol container. 16.55 g. of propellant R-134a (1,1,1,2-tetrafluoroethane) was added.
# 0.87 g of bupivacaine base was added to an aerosol container. 8.47 g of an SAIB/propylene carbonate solution (70:30) containing 2.5 wt % of a biodegradable polymer (65:35 DLPLG) was added to the container. 0.98 g of ethanol was added to help the drug dissolve. Once dissolved, approximately 16 g of propellant R-134a (1,1,1,2-tetrafluoroethane) was added.
# [4] = In vitro release of bupivacaine from precipitated drops into buffer (UV-vis 265 nm)
# Description: CAPROL 10G4O (decaglycerol tetraoleate) was dissolved in benzyl benzoate at a weight ratio of 50:50. Bupivacaine was dissolved in this mixture at a concentration of 8.75 wt %. Drops weighing approximately 100 mg were precipitated into a test tube containing 40 mL of buffer. Samples of the buffer were removed at specified time points and replaced with fresh buffer. The samples were analyzed by UV-vis spectrophotometry at 265 nm to determine the concentration of bupivacaine in each buffer sample. At 4 hours, less than 7.5 wt % of the bupivacaine in the drop had been released to the buffer. At 48 hours, around 24.0 wt % of the bupivacaine had been released.
# The 1,6-hexanediol lactate ε-hydroxycaproic acid produced in Example 1 was dissolved in N-methylpyrrolidone at a weight ratio of 70:30. 10 wt % bupivacaine base was then added to this mixture and dissolved. Drops weighing approximately 100 mg were precipitated into 40 mL buffer. Samples of buffer were removed at specified times and replaced with fresh buffer. Buffer samples were analyzed by UV-vis spectrophotometry at 265 nm to determine the concentration of bupivacaine in each buffer sample. At 4 hours, around 4.1 wt % of the bupivacaine contained in the precipitated drop had been released. At 24 hours, around 8.6 wt % of the bupivacaine had been released.
# [5] = Dissolution of SAIB in propellants; details: propellants 134a and 227, levels of 5 and 10 wt %
# Description: SAIB was dissolved in propellants 134a (1,1,1,2-tetrafluoroethane) and 227 (1,1,1,2,3,3,3-heptafluoropropane) at levels of 5 and 10 wt %.
compound,measurement,setting,value
"Cc1cn([C@H]2C[C@H](N=[N+]=[N-])[C@@H](CO)O2)c(=O)[nH]c1=O [AZT, Zidovudine]",cumulative percent released,"[1]; 11.1 wt % AZT in 70:30 SAIB/Migylol 810, 2 hours",104.1%
same,amount released,"[1]; 11.1 wt % AZT in 85:15 SAIB/EtOH + 0.02 wt % CAB, 2 hours",25.6%
same,amount released,"[1]; 11.1 wt % AZT in 85:15 SAIB/EtOH + 0.2 wt % CAB, 2 hours",7.6%
same,cumulative percent released,"[1]; 11.1 wt % AZT in 85:15 SAIB/EtOH, 2 hours",71.2%
same,cumulative percent released,[1]; active loading doubled to 22.2 wt % in 85:15 SAIB/EtOH,93.8%
"O=c1[nH]cc(F)c(=O)[nH]1 [Example 5-FU, 5-fluorouracil]",percent released,"[2]; 10 mg/mL 5-FU in 85:15 SAIB/EtOH + 5 wt % Cremophor EL, after two days",106.0%
same,amount released,"[2]; 10 mg/mL 5-FU in 85:15 SAIB/EtOH + Pluronic L-101, after two days",102.0%
same,percent released,"[2]; 10 mg/mL 5-FU in 85:15 SAIB/EtOH, no surfactant, after two days",80.6%
CCCCN1CCCCC1C(=O)Nc1c(C)cccc1C (stereo not shown) [bupivacaine],sprayability of aerosol mixture,"[3]; 0.87 g bupivacaine base, 8.47 g SAIB/propylene carbonate (70:30) with 2.5 wt % 65:35 DLPLG, 0.98 g ethanol, approx. 16 g R-134a",easily sprayed with no bubbling or foaming
same,sprayability of aerosol mixture,[3]; 5.33 g of 10 wt % bupivacaine in 70:30 SAIB/NMP + 14.32 g propellant R-134a,easily sprayed with no bubbling or foaming
same,sprayability of aerosol mixture,[3]; 5.44 g of 10 wt % bupivacaine in 70:30 SAIB/NMP + 16.55 g propellant R-134a,easily sprayed with no bubbling or foaming
same,bupivacaine contained in the precipitated drop released,"[4]; 1,6-hexanediol lactate ε-hydroxycaproic acid (Example 1)/N-methylpyrrolidone 70:30, 10 wt % bupivacaine base, 4 hours",around 4.1 wt %
same,bupivacaine released,"[4]; 1,6-hexanediol lactate ε-hydroxycaproic acid (Example 1)/N-methylpyrrolidone 70:30, 10 wt % bupivacaine base, 24 hours",around 8.6 wt %
same,bupivacaine in the drop released to the buffer,"[4]; CAPROL 10G4O (decaglycerol tetraoleate)/benzyl benzoate 50:50, 8.75 wt % bupivacaine, 4 hours",less than 7.5 wt %
same,bupivacaine released,"[4]; CAPROL 10G4O (decaglycerol tetraoleate)/benzyl benzoate 50:50, 8.75 wt % bupivacaine, 48 hours",around 24.0 wt %
"Nc1ccn([C@H]2CC[C@@H](CO)O2)c(=O)n1 [ddC, dideoxycytodine]",cumulative percent released,"[1]; 0.225 wt % ddC in 70:30 SAIB/Migylol 810, 2 hours",74.2%
same,amount released,"[1]; 0.225 wt % ddC in 85:15 SAIB/EtOH + 0.5 wt % CAB, 2 hours",39.4%
same,amount released,"[1]; 0.225 wt % ddC in 85:15 SAIB/EtOH + 1.0 wt % CAB, 2 hours",13.5%
same,cumulative percent released,"[1]; 0.225 wt % ddC in 85:15 SAIB/EtOH, 2 hours",59.5%
CC(=O)O[C@H]1C(=O)[C@@]2(C)[C@H]([C@H](OC(=O)c3ccccc3)[C@]3(O)C[C@H](OC(=O)[C@H](O)[C@@H](NC(=O)c4ccccc4)c4ccccc4)C(C)=C1C3(C)C)[C@]1(OC(C)=O)CO[C@@H]1C[C@@H]2O [paclitaxel],percent released,"[2]; 25 mg/mL paclitaxel in 85:15 SAIB/EtOH + 5 wt % Cremophor EL, after two days in vitro",77.0%
same,percent released,"[2]; 25 mg/mL paclitaxel in 85:15 SAIB/EtOH, no surfactant, after two days in vitro",56.0%
same,cumulative release,[2]; drug loading 5 mg/mL,106.4%
same,cumulative release,[2]; drug loading 25 mg/mL,85.9%
same,cumulative release,[2]; drug loading 50 mg/mL,33.8%
sucrose acetate isobutyrate [SAIB],appearance on dissolution in propellants,[5],Clear solutions were formed
